In brackets after ≈: the same amount, converted by molar mass.
Assays:
[1] = test system: HCMV recombinant mutant virus (RV145); test: HCMV microtiter plate assay (beta-glucuronidase reporter); assay type: cell-based, Human Cytomegalovirus; conditions: for IC50 (ug/ml) HCMV: HCMV in human foreskin fibroblasts
Description: Ninety-six well plate cultures of human foreskin fibroblasts are infected in the presence of inhibitor compound with a HCMV recombinant mutant virus whose genome contains the prokaryotic beta-glucuronidase gene (Jefferson, R. A., S. M. Burgess, and D. Hirsh. 1986. Beta-glucuronidase from Escherichia coli as a gene fusion marker. Proc. Natl. Acad. Sci. USA 83:8447-8451) whose expression is controlled by a viral promoter. An example of such a virus is RV145 (Jones, T. R., V. P. Muzithras, and Y. Gluzman. 1991. Replacement mutagenesis of the human cytomegalovirus genome: US10 and US11 gene products are nonessential. J. Virol. 65:5860-5872). Since it is under the control of a viral promoter, beta-glucuronidase expression is an indirect indicator of growth and replication of HCMV in this assay. At 96 hours post-infection, the infected cell lysates are prepared (using 50 mM sodium phosphate [pH7.0] containing 0.1% Triton X-100 and 0.1% sarkosyl) and assayed for beta-glucuronidase activity using a substrate for the enzyme which when cleaved yields either a product which can be measured colorimetrically in a spectrophotometer or fluorescently in a microfluorimeter. Examples of such substrates are p-nitrophenyl-beta-D-glucuronide and methylumbelliferylglucuronide, respectively. The presence of an antiviral compound is indicated by the reduced expression of the HCMV genome resident beta-glucuronidase gene, compared to the absence of inhibitor. […] Data from this assay generated using varying amounts of inhibitor compound is also used to estimate the IC50 of an inhibitor compound.

VZV strain Ellen = test: VZV Antiviral (ELISA) assay; assay type: cell-based; conditions: for IC50 (ug/ml) VZV: VZV strain Ellen in HFF cells
Description: For the generation of stock VZV to be used in the assay, VZV strain Ellen (ATCC #VR-1367) is used to infect human foreskin fibroblast (HFF) cells at low multiplicity (less than 0.1) and incubated overnight at 37° C. in 5% CO2. After the overnight incubation, the mixture of uninfected and VZV-infected HFF infected cells are then harvested and added to each well of 96-well plates (3.5×10^4 cells in 100 μl DMEM supplemented with 2% FBS) which contain test compound or the reference standard drug control (in 100 μl DMEM supplemented with 2% FBS per well). These cells are incubated for three days at 37° C. in 5% CO2, then fixed for ELISA assay. The primary antibody is murine anti-VZV glycoprotein II monoclonal antibody (Applied Biosystems, Inc. #13-145-100) and the secondary antibody is goat anti-mouse IgG linked to β-galactosidase. Thus the extent of viral replication is determined by assessing β-galactosidase activity by quantifying the generation of the 4-methyl umbelliferone fluorescent cleavage product after addition of the methyl umbelliferyl-β-D-galactoside (Sigma #M1633) substrate on a microfluorimeter (365 nm for excitation and 450 nm for emission). Antiviral activity (IC50) of the test compound is determined by comparing the flourescence obtained in absence of compound to that obtained in the presence of compound.

| SMILES | IC50 (ug/ml) HCMV [1] [µg/mL] | IC50 (ug/ml) VZV (VZV strain Ellen) [µg/mL] | IC50 ([1]; Human betaherpesvirus 5, Fibroblast, read-out: IC50 (ug/ml) HCMV) [µg/mL] | inhibition at 10 µg/mL (VZV strain Ellen; Human alphaherpesvirus 3, read-out: % inhibition 10 ug/ml VZV, at 10 ug/ml, VZV strain Ellen in HFF cells) [%] |
| --- | --- | --- | --- | --- |
| Cc1ccc(C(C)NC(=S)Nc2ccc(NC(=O)c3cscn3)cc2)c(C)c1 (centres unmarked) [Example 834] | 0.002 (≈ 0.00487 µM) | >7.5 |  |  |
| O=C(Nc1ccc(NC(=S)Nc2ccc(F)cc2)cc1)c1csnn1 [Example 740] | 0.1 (≈ 0.268 µM) |  |  |  |
| CC(NC(=S)Nc1ccc(NC(=O)c2cscn2)cc1)c1ccc(F)cc1Br (centres unmarked) [Example 854] | 0.02 (≈ 0.0417 µM) |  |  |  |
| C[C@H](NC(=S)Nc1ccc(NC(=O)c2csnn2)cc1)c1ccc(Cl)cc1 [Example 820] | 0.006 (≈ 0.0144 µM) | >7.5 |  |  |
| O=C(Nc1ccc(NC(=S)NCc2cc(F)cc(F)c2)cc1)c1ccco1 [Example 579] | 0.05 (≈ 0.129 µM) | 6 (≈ 15.5 µM) |  |  |
| COc1ccc(CCNC(=S)Nc2ccc(NC(=O)c3ccco3)cc2)cc1OC [Example 611] | 0.5 (≈ 1.18 µM) | >10 |  |  |
| O=C(Nc1ccc(NC(=S)NCc2cc(Cl)cc(Cl)c2)cc1)c1csnn1 [Example 584] | 0.0026 (≈ 0.00593 µM) | >10 |  |  |
| O=C(Nc1ccc(NC(=S)NCCCc2ccccc2)cc1)c1ccco1 [Example 612] | 0.049 (≈ 0.129 µM) | 1 (≈ 2.64 µM) |  |  |
| O=C(Nc1ccc(NC(=S)NCc2cc(C(F)(F)F)cc(C(F)(F)F)c2)cc1)c1c[nH]cn1 [Example 862] | 0.1 (≈ 0.205 µM) | >7.5 |  |  |
| O=C(Nc1ccc(NC(=S)NCCc2cccc(F)c2)cc1)c1ccco1 [Example 573] | 0.05 (≈ 0.13 µM) | >10 |  |  |
| O=C(Nc1ccc(NC(=S)NCCOc2cccc(F)c2)cc1)c1csnn1 [Example 736] | 0.012 (≈ 0.0287 µM) |  |  |  |
| C[C@@H](NC(=S)Nc1ccc(NC(=O)c2csnn2)cc1)c1ccc(Cl)cc1 [Example 821] | 0.005 (≈ 0.012 µM) | >7.5 |  |  |
| O=C(Nc1ccc(NC(=S)NCc2cc(Cl)cc(Cl)c2)cc1)c1ccco1 [Example 582] | 0.01 (≈ 0.0238 µM) | 8 (≈ 19 µM) |  |  |
| O=C(Nc1ccc(NC(=S)NCCCc2ccccc2)cc1)c1csnn1 [Example 613] | 0.011 (≈ 0.0277 µM) | >10 |  |  |
| CC(=O)Nc1ccc(NC(=S)Nc2ccc(C(C)O)c(Cl)c2)cc1 (centres unmarked) [Example 913, N-(4-{3-[3-Chloro-4-(1-hydroxy-ethyl)-phenyl]-thioureido}-phenyl)-acetamide] |  |  | 0.056 (≈ 0.154 µM) | 15 |
| CC(NC(=S)Nc1ccc(NC(=O)c2cscn2)cc1)c1ccc(Br)cc1 (centres unmarked) [Example 824] | 0.014 (≈ 0.0303 µM) | 0.17 (≈ 0.368 µM) |  |  |
| CC(NC(=S)Nc1ccc(NC(=O)c2cscn2)cc1)c1ccc(F)c(Cl)c1 (centres unmarked) [Example 856] | 0.02 (≈ 0.046 µM) |  |  |  |
| CC(NC(=S)Nc1ccc(NC(=O)c2cscn2)cc1)c1ccccc1C(F)(F)F (centres unmarked) [Example 845] | 0.0060 (≈ 0.0133 µM) | >7.5 |  |  |
| Cc1cccc(C(C)NC(=S)Nc2ccc(NC(=O)c3cscn3)cc2)c1 (centres unmarked) [Example 837] | 0.03 (≈ 0.0757 µM) | 3.60 (≈ 9.08 µM) |  |  |
| O=C(Nc1ccc(NC(=S)NCc2ccccc2F)cc1)c1csnn1 [Example 730] | 0.033 (≈ 0.0852 µM) |  |  |  |
| O=C(Nc1ccc(NC(=S)NCCOc2ccccc2Cl)cc1)c1csnn1 [Example 733] | 0.018 (≈ 0.0415 µM) |  |  |  |
| CC(NC(=S)Nc1ccc(NC(=O)c2cscn2)cc1)c1ccc(F)cc1C(F)(F)F (centres unmarked) [Example 852] | 0.005 (≈ 0.0107 µM) | >7.5 |  |  |
| O=C(Nc1ccc(NC(=S)NCCc2ccccc2)cc1)c1ccco1 [Example 574] | 0.089 (≈ 0.244 µM) | >10 |  |  |

| SMILES | IC50 (ug/ml) HCMV [1] [µg/mL] | IC50 (ug/ml) VZV (VZV strain Ellen) [µg/mL] | IC50 ([1]; Human betaherpesvirus 5, Fibroblast, read-out: IC50 (ug/ml) HCMV) [µg/mL] | inhibition at 10 µg/mL (VZV strain Ellen; Human alphaherpesvirus 3, read-out: % inhibition 10 ug/ml VZV, at 10 ug/ml, VZV strain Ellen in HFF cells) [%] |
| --- | --- | --- | --- | --- |
| O=C(Nc1ccc(NC(=S)NCCc2cc(C(F)(F)F)cc(C(F)(F)F)c2)cc1)c1ccco1 [Example 614] | 0.024 (≈ 0.0479 µM) | 7 (≈ 14 µM) |  |  |
| O=C(Nc1ccc(NC(=S)NCc2cc(F)cc(C(F)(F)F)c2)cc1)c1csnn1 [Example 587] | 0.005 (≈ 0.011 µM) | >10 |  |  |
| O=C(Nc1ccc(NC(=S)Nc2ccc(I)c(C(F)(F)F)c2)cc1)c1csnn1 [Example 615] | 0.005 (≈ 0.0091 µM) | >10 |  |  |
| CC(NC(=S)Nc1ccc(NC(=O)c2csnn2)cc1)c1ccc(C#N)cc1 (centres unmarked) [Example 822] | 0.018 (≈ 0.0441 µM) | >7.5 |  |  |
| CC(NC(=S)Nc1ccc(NC(=O)c2cscn2)cc1)c1ccc(Br)cc1F (centres unmarked) [Example 841] | 0.0011 (≈ 0.00229 µM) | 0.77 (≈ 1.61 µM) |  |  |
| C[C@H](NC(=S)Nc1ccc(NC(=O)c2csnn2)cc1)c1cc(C(F)(F)F)cc(C(F)(F)F)c1 [Example 825] | 0.0013 (≈ 0.0025 µM) | >7.5 |  |  |
| CN(C)c1cc(CNC(=S)Nc2ccc(NC(=O)c3csnn3)cc2)cc(C(F)(F)F)c1 [Example 618] | 0.0016 (≈ 0.00333 µM) | >10 |  |  |
| C[C@@H](NC(=S)Nc1ccc(NC(=O)c2cscn2)cc1)c1cc(C(F)(F)F)cc(C(F)(F)F)c1 [Example 847] | 0.0008 (≈ 0.00154 µM) | >7.5 |  |  |
| CC(NC(=S)Nc1ccc(NC(=O)c2c[nH]cn2)cc1)c1ccc(F)cc1 (centres unmarked) [Example 863] | 2.0 (≈ 5.22 µM) | >7.5 |  |  |
| CC(NC(=S)Nc1ccc(NC(=O)c2cscn2)cc1)c1ccccc1Br (centres unmarked) [Example 843] | 0.0031 (≈ 0.00672 µM) | >7.5 |  |  |
| CC(NC(=S)Nc1ccc(NC(=O)c2cscn2)cc1)c1cc(C(F)(F)F)ccc1F (centres unmarked) [Example 833] | 0.0019 (≈ 0.00406 µM) | >7.5 |  |  |
| O=C(Nc1ccc(NC(=S)NCc2ccc(F)c(C(F)(F)F)c2)cc1)c1csnn1 [Example 624] | 0.002 (≈ 0.00439 µM) | >10 |  |  |
| O=C(Nc1ccc(NC(=S)NCCOc2ccccc2F)cc1)c1csnn1 [Example 735] | 0.022 (≈ 0.0527 µM) |  |  |  |
| CC(NC(=S)Nc1ccc(NC(=O)c2cscn2)cc1)c1ccc(C(F)(F)F)cc1F (centres unmarked) [Example 832] | 0.001 (≈ 0.00213 µM) | >7.5 |  |  |
| CN1CCN(c2ccc(CNC(=S)Nc3ccc(NC(=O)c4csnn4)cc3)cc2C(F)(F)F)CC1 [Example 617] | 0.013 (≈ 0.0243 µM) | >10 |  |  |
| CCC(NC(=S)Nc1ccc(NC(=O)c2cscn2)cc1)c1cc(C(F)(F)F)cc(C(F)(F)F)c1 (centres unmarked) [Example 865] | 0.0001 (≈ 0.000188 µM) | >7.5 |  |  |
| CC(NC(=S)Nc1ccc(NC(=O)c2cscn2)cc1)c1ccc(Cl)c(Cl)c1 (centres unmarked) [Example 848] | 0.002 (≈ 0.00443 µM) | 0.19 (≈ 0.421 µM) |  |  |
| CC(NC(=S)Nc1ccc(NC(=O)c2cscn2)cc1)c1cc(F)cc(C(F)(F)F)c1 (centres unmarked) [Example 831] | 0.0011 (≈ 0.00235 µM) | >7.5 |  |  |
| O=C(Nc1ccc(NC(=S)NCc2cc(F)cc(F)c2)cc1)c1csnn1 [Example 581] | 0.01 (≈ 0.0247 µM) | >10 |  |  |
| O=C(Nc1ccc(NC(=S)NCc2ccccc2Cl)cc1)c1csnn1 [Example 729] | 0.02 (≈ 0.0495 µM) |  |  |  |
| O=C(Nc1ccc(NC(=S)NCc2cccc(F)c2)cc1)c1csnn1 [Example 732] | 0.022 (≈ 0.0568 µM) |  |  |  |
| CC(NC(=S)Nc1ccc(NC(=O)c2cscn2)cc1)c1ccc(Br)c(Br)c1 (centres unmarked) [Example 855] | 0.02 (≈ 0.037 µM) |  |  |  |
